From patent EP3046573B1, “AMYLIN ANALOGUES” (Zealand Pharma A/S, priority 2013, dated 2015)
Numbered stars: 1 amine (or outer) side, 2 acyl side, 3 side chain; on linkers, the order of the positions; unused ones are H or OH. Bridge positions count the residues as written; N and C are the ends. Square brackets hold non-standard residues; d marks the D form. Peptide text beside a SMILES is read from it. * marks the point of attachment. C20 diacid = O=C(O)CCCCCCCCCCCCCCCCCCC(=O)*; γGlu = O=C(O)[C@H](CCC(=O)[*:2])N[*:1]; Hyp = O=C(O)[C@@H]1C[C@@H](O)CN1; NMeI = CC[C@H](C)[C@H](NC)C(=O)O; Sar = CNCC(=O)O

Tests used:
[1] = target: T1, human calcitonin receptor (hCTR2) (Homo sapiens, UniProt P30988); experiment: hCTR2 assay: induction of cAMP (AlphaScreen cAMP Assay kit) in COS7 cells expressing hCTR2; format: cell-based; conditions: cAMP induction in COS7 cells expressing hCTR2; average of a minimum of 3 determinations; read-out: hCTR2 EC50
T1 construct: expressed in transfected cells
T1 sequence (P30988 25-474): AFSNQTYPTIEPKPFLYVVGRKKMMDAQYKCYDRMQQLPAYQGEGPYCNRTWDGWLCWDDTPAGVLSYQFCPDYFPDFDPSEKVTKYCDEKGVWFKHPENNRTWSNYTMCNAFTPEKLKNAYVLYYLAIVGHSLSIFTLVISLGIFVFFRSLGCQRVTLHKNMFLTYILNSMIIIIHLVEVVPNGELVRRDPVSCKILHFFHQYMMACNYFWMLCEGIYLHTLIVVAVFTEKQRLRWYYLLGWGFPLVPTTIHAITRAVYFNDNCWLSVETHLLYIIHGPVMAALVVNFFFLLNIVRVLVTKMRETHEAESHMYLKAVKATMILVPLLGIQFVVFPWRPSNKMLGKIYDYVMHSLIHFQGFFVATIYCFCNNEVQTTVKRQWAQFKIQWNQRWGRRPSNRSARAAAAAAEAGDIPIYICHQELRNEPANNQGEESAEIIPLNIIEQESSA
In short: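 Functional agonism is measured as cAMP accumulation in a COS7 line stably transfected with hCTR2, lacking endogenous RAMPs. Peptides act for 15 min at 37° C with IBMX present, and curves are fitted with a 4-parameter logistic model.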

[2] = target: T2, human amylin receptor 3 (hAMYR3) consisting of hCTR2 co-expressed with human Receptor Activity Modifying Protein 3 (hRAMP3) (Homo sapiens, UniProt O60896+P30988); experiment: hAMYR3 assay: induction of cAMP (AlphaScreen cAMP Assay kit) in COS7 cells expressing hAMYR3; format: cell-based; conditions: cAMP induction in COS7 cells expressing hAMYR3; average of a minimum of 3 determinations; read-out: hAMY R3 EC50
T2 construct: expressed in transfected cells
T2 sequence (P30988 25-474): T1 sequence (P30988 25-474)
T2 sequence (O60896 24-148 partner): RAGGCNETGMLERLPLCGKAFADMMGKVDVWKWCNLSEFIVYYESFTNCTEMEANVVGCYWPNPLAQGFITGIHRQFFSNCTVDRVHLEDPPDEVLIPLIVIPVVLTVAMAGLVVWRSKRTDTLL
Description: The cell line COS7, originating from African Green Monkey kidney fibroblast cells, was used for establishment of the stable cell lines described below. The COS7 cellular background was used due to it being RAMP naive, and as such it provides the best available system for testing of the monomeric hCTR and different heterodimeric amylin receptor subtypes functionally generated by introduction of the individual RAMPs.
A cell line expressing the human amylin receptor 3 (hAMYR3) was generated in the COS7 cellular background as stable clones. In brief, hCTR2 (GI:4502547) and hRAMP3 (GI:118572586) were amplified by PCR using primers encoding terminal restriction sites for subcloning. The 5'-end primers additionally encoded a near Kozak consensus sequence to ensure efficient translation. The fidelity of the DNA encoding the receptor was confirmed by DNA sequencing. The PCR products encoding the receptor were subcloned into a proprietary tri-cistronic mammalian expression vector with RAMP3, hCTR2 and neomycin (G418) resistance marker. The mammalian expression vector encoding the receptor was transfected into COS7 cells by a standard liposome transfection method. 48 hours post-transfection, cells were seeded for limited dilution cloning and selected with 1 mg/ml G418 in the culture medium. After 3 weeks, surviving colonies of hAMY3R-expressing cells were picked, propagated and tested in the amylin efficacy assay as described in Example 3 below. The functional generation of the amylin receptor phenotype was verified in the efficacy assay by a left-shifted efficacy response to amylin relative to monomeric calcitonin receptor, and one hAMYR3-expressing clone was chosen for compound profiling.
In vitro activity of test peptides at the hCTR2 and hAMYR3 receptors was assessed by measuring the induction of cAMP following stimulation of the receptor by pramlintide or peptides of the invention using the AlphaScreen® cAMP Assay kit from Perkin-Elmer.
Briefly, COS7 cells expressing hCTR2 (see Example 2, above) were seeded at 30-40,000 cells per well in 96-well microtiter plates coated with 0.01 % poly-L-lysine, and grown for 1 day in culture in 100 µl growth medium [DMEM, 10% FCS, Penicillin (100 IU/ml), Streptomycin (100 µg/ml)]. On the day of analysis, growth medium was removed and the cells were washed once with 200 µl Tyrode buffer [Tyrode's Salts (9.6 g/l), 10 mM HEPES, pH 7.4]. Cells were incubated in 100 µl Tyrode buffer containing increasing concentrations of test peptides, 100 µM IBMX and 0.1% casein for 15 min at 37° C. The reaction was stopped by carefully decanting off the compound/buffer medium and replacing it with lysis/detection buffer (80 µl 0.1 % w/v BSA, 5 mM HEPES, 0.3 % v/v Tween-20 in deionized water). After incubation at room temperature for 10 min., the cAMP content of the resulting cell lysate was estimated according to the AlphaScreen® cAMP Assay manufacturer's instructions. EC50 values and relative efficacy values (in %) compared to reference peptide (Pramlintide) were estimated by computer-aided curve fitting using the 4-parameter logistic (4PL) non-linear model.
The in vitro activity results (expressed as EC50 values) for peptides of the invention and for Pramlintide (reference peptide) are summarized in Table 2, below.

EC50 [1] [nM] | EC50 [2] [nM] | Structure (SMILES)
0.14 | 0.29 | CC[C@H](C)[C@@H](C(=O)N[C@@H](CC(C)C)C(=O)N[C@@H](CO)C(=O)N[C@@H](CO)C(=O)N[C@H](C(=O)N[C@@H](CCC(=O)O)C(=O)N[C@H](C(=O)NCC(=O)N[C@@H](CO)C(=O)N[C@@H](CCC(=O)O)C(=O)N[C@H](C(=O)N1CCC[C@H]1C(N)=O)[C@@H](C)O)C(C)C)[C@@H](C)O)N(C)C(=O)[C@H](C)NC(=O)CN(C)C(=O)[C@H](Cc1ccccc1)NC(=O)[C@H](CO)NC(=O)[C@H](CO)NC(=O)[C@H](CO)NC(=O)[C@H](CO)NC(=O)[C@H](CCCNC(=N)N)NC(=O)[C@H](Cc1c[nH]cn1)NC(=O)[C@H](CC(C)C)NC(=O)[C@H](Cc1ccccc1)NC(=O)[C@H](CCC(=O)O)NC(=O)[C@H](C)NC(=O)[C@H](CC(C)C)NC(=O)[C@H](CCCNC(=N)N)NC(=O)[C@@H]1CCCN1C(=O)[C@@H](NC(=O)[C@H](C)NC(=O)[C@@H]1CSSC[C@H](NC(=O)[C@H](CCCNC(=N)N)NC(=O)CC[C@H](NC(=O)CCCCCCCCCCCCCCCCCCC(=O)O)C(=O)O)C(=O)N[C@@H](CC(N)=O)C(=O)N[C@@H]([C@@H](C)O)C(=O)N[C@@H](C)C(=O)N[C@@H]([C@@H](C)O)C(=O)N1)[C@@H](C)O [Compound 142, [19CD]-isoGlu-RC()NTATC()ATPRLAEFLHRSSSSF-Gly(Me)-A-Ile(Me)-LSSTEVGSETP-NH2] ({C20 diacid-γGlu}-RCNTATCATPRLAEFLHRSSSSF[Sar]A[NMeI]LSSTEVGSETP-NH2; disulfide 2-7)
0.1 | 0.27 | CC[C@H](C)[C@@H](C(=O)N[C@@H](CC(C)C)C(=O)N[C@@H](CO)C(=O)N[C@@H](CO)C(=O)N[C@H](C(=O)N[C@@H](CCC(=O)O)C(=O)N[C@H](C(=O)NCC(=O)N[C@@H](CO)C(=O)N[C@@H](CCC(=O)O)C(=O)N[C@H](C(=O)N1C[C@H](O)C[C@H]1C(N)=O)[C@@H](C)O)C(C)C)[C@@H](C)O)N(C)C(=O)[C@H](C)NC(=O)CN(C)C(=O)[C@H](Cc1ccccc1)NC(=O)[C@H](CO)NC(=O)[C@H](CO)NC(=O)[C@H](CCCNC(=N)N)NC(=O)[C@H](Cc1c[nH]cn1)NC(=O)[C@H](CC(C)C)NC(=O)[C@H](Cc1ccccc1)NC(=O)[C@H](CCC(=O)O)NC(=O)[C@H](C)NC(=O)[C@H](CC(C)C)NC(=O)[C@H](CCCNC(=N)N)NC(=O)[C@H](CCC(=O)O)NC(=O)[C@@H](NC(=O)[C@H](C)NC(=O)[C@@H]1CSSC[C@H](NC(=O)[C@H](Cc2c[nH]c3ccccc23)NC(=O)CC[C@H](NC(=O)CCCCCCCCCCCCCCCCCCC(=O)O)C(=O)O)C(=O)NCC(=O)N[C@@H]([C@@H](C)O)C(=O)N[C@@H](C)C(=O)N[C@@H]([C@@H](C)O)C(=O)N1)[C@@H](C)O [Compound 164, [19CD]-isoGlu-WC()GTATC()ATERLAEFLHRSSF-Gly(Me)-A-Ile(Me)-LSSTEVGSET-Hyp-NH2] ({C20 diacid-γGlu}-WCGTATCATERLAEFLHRSSF[Sar]A[NMeI]LSSTEVGSET[Hyp]-NH2; disulfide 2-7)
